The source made the active and inactive calls. The rule behind the calls is not given here.
Legend:
Homo sapiens [1] = organism: Homo sapiens; assay: Effect on SOX2 mRNA expression in human TS15-88 cells after 72 hrs by qRT-PCR analysis; format: functional, cell-based
[2] = biological target: T1, P2X purinoceptor 7 (Homo sapiens) (UniProt Q99572); assay: Antagonist activity at human P2X7 receptor expressed in HEK293 cells assessed as inhibition of BzATP-induced EtBr uptake at 10 uM after 2 hrs by fluorescence assay relative to control; format: cell-based
T1 sequence (whole entry): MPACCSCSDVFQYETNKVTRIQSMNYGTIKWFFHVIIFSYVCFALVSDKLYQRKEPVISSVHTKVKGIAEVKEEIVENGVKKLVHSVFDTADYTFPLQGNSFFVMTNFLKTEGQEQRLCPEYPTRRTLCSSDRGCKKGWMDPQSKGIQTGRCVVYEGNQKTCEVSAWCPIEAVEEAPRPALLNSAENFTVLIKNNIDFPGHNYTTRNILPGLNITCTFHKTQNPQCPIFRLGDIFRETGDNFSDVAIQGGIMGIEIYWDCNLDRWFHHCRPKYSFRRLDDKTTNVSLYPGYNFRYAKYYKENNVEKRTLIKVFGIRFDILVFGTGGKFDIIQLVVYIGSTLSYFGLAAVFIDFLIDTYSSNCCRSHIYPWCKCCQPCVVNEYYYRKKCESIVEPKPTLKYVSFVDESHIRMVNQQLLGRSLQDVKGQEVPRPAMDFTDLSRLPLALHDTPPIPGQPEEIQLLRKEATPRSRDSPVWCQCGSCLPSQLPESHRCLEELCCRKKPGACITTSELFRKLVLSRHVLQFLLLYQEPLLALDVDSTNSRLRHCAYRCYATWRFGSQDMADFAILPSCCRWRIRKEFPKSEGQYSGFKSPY

P2X purinoceptor 7 [3] = biological target: T2, P2X purinoceptor 7 (Homo sapiens, UniProt Q99572); assay: Antagonist activity at P2X7 in LPS/IFN gamma differentiated human THP-1 cells assessed as inhibition of BzATP-induced IL-1beta release preincubated for 30 mins followed by BzATP stimulation for 30 mins by ELISA; format: cell-based
T2 sequence (Q99572 whole entry): T1 sequence (whole entry)

[4] = Increase in CD133 mRNA expression in human TS15-88 cells after 72 hrs by qRT-PCR analysis relative to control; format: functional
[5] = biological target: T3, P2X purinoceptor 2 (Homo sapiens) (UniProt Q9UBL9); assay: Antagonist activity at human P2X2 receptor expressed in 1321N1 cells assessed as inhibition of ATP-induced calcium flux at 1 uM measured for 30 secs at 0.4 secs intervals by Flou-4-AM dye based fluorescence assay relative to control; format: cell-based
T3 sequence (whole entry): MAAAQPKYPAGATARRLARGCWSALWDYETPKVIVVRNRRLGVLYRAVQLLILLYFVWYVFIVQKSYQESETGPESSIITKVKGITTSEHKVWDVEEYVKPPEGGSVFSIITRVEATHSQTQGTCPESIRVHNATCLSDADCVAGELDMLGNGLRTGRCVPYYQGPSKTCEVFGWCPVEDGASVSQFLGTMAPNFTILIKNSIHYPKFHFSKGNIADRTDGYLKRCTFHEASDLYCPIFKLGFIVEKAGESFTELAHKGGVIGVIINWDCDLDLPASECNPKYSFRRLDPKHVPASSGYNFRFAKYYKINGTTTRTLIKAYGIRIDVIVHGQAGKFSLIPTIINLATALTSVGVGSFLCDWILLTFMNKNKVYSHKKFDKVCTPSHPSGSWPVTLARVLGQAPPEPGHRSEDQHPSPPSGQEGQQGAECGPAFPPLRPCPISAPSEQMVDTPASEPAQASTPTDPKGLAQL

[6] = Inhibition of neurosphere formation in human TS15-88 cells assessed as decrease in sphere size at 50 uM after 5 days by microscopic analysis relative to control; format: functional; conditions: 120 h
[7] = biological target: T4, P2X purinoceptor 1 (Homo sapiens) (UniProt P51575); assay: Antagonist activity at human P2X1 receptor expressed in 1321N1 cells assessed as inhibition of ATP-induced calcium flux at 1 uM measured for 30 secs at 0.4 secs intervals by Flou-4-AM dye based fluorescence assay relative to control; format: cell-based
T4 sequence (whole entry): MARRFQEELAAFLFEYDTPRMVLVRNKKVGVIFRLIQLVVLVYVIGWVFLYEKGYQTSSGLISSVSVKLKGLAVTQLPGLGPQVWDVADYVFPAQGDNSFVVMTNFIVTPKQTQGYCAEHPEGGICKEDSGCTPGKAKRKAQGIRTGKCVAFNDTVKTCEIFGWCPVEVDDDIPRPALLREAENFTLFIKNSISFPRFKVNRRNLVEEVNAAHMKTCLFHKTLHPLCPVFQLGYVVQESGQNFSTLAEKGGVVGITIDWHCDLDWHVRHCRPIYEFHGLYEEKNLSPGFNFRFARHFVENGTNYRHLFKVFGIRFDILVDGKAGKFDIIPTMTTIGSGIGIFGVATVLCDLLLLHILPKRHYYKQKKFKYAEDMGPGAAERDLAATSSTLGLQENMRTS

Homo sapiens [8] = organism: Homo sapiens; assay: Antiproliferative activity against human TS15-88 cells at 50 uM after 72 hrs by MTS assay; format: functional, cell-based
[9] = Metabolic stability in human liver microsomes assessed as parent compound remaining at 1 uM up to 30 mins in presence of NADPH by LC-MS/MS analysis; format: ADME, microsome; conditions: read-out: Stability
Homo sapiens [10] = organism: Homo sapiens; assay: Inhibition of neurosphere formation in human TS15-88 cells assessed as decrease in surface area of sphere at 50 uM after 5 days by microscopic analysis; format: functional, cell-based
[11] = Drug level in zebrafish blood at 10 mg/kg, po administered via gavage measured 0.5 hrs post compound administration by LC-MS/MS analysis; format: ADME, organism-based, Danio rerio; conditions: read-out: Drug uptake
[12] = Drug level in zebrafish brain at 10 mg/kg, po administered via gavage measured 0.5 hrs post compound administration by LC-MS/MS analysis; format: ADME, organism-based, Danio rerio; conditions: read-out: Drug uptake
P2X purinoceptor 7 [13] = biological target: T2, P2X purinoceptor 7; assay: Antagonist activity at human P2X7 receptor expressed in HEK293 cells assessed as inhibition of BzATP-induced EtBr uptake after 2 hrs by fluorescence assay relative to control; format: cell-based
[14] = Metabolic stability in mouse liver microsomes assessed as parent compound remaining at 1 uM up to 30 mins in presence of NADPH by LC-MS/MS analysis; format: ADME, microsome; conditions: read-out: Stability
P2X purinoceptor 3 = biological target: T5, P2X purinoceptor 3 (Homo sapiens, UniProt P56373); assay: Antagonist activity at human P2X3 receptor expressed in 1321N1 cells assessed as inhibition of ATP-induced calcium flux measured for 30 secs at 0.4 secs intervals by Flou-4-AM dye based fluorescence assay; format: cell-based
T5 sequence (P56373 whole entry): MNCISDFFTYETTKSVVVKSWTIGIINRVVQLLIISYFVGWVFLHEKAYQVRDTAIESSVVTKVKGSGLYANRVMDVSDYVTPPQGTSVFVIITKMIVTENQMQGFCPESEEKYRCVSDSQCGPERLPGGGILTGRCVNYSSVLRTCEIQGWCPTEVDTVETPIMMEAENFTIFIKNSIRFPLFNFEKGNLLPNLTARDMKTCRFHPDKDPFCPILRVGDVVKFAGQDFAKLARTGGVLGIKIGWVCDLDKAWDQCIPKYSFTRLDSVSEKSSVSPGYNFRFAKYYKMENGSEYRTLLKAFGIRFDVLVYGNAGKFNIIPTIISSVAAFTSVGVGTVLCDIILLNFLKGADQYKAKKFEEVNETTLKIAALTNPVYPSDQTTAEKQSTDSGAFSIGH

O=C(CC12CC3CC(CC(C3)C1)C2)Nc1cccc2nc(Cl)ccc12
Activity (Homo sapiens [1]): inactive | inhibition [2]: 97% | IC50 (P2X purinoceptor 7 [3]): 7 nM | Activity [4]: 30% | inhibition [5]: 7% | inhibition at 50 µM [6]: > 50% | inhibition [7]: 13% | Activity (Homo sapiens [8]): Active | remaining at 0.5 h, 1 µM [9]: 0.04% | inhibition (Homo sapiens [10]): Active | concentration at 0.5 h [11]: 235 ng/mL | concentration at 0.5 h [12]: 425 ng/g | IC50 (P2X purinoceptor 7 [13]): 4 nM | remaining at 0.5 h, 1 µM [14]: 0.1% | IC50 (P2X purinoceptor 3): Not Active

— ChEMBL document CHEMBL4152208, “Synthesis and structure-activity relationships of quinolinone and quinoline-based P2X7 receptor antagonists and their anti-sphere formation activities in glioblastoma cells” (Eur J Med Chem, 2018)
